Read-outs that look alike come from different tables or passages of the source. One block for each molecule: values may come before it.
What was measured:
[1] = Bile pharmacokinetics of 5-FU in rats after whole pelvic irradiation; format: in vivo, Sprague-Dawley rats; settings: for AUC / Cmax / MRT / clearance / half-life / Vd: Sprague-Dawley, rat, iv, 100 mg/kg, 5-FU 100 mg/kg i.v.; for Vd: read-out: Vss
[2] = Plasma pharmacokinetics of 5-FU in rats with or without MMP-8 inhibitor before whole pelvic irradiation 2 Gy; format: in vivo, Sprague-Dawley rats; settings: for AUC / Cmax / MRT / clearance / half-life / Vd: Sprague-Dawley, rat, iv, 100 mg/kg, 5-FU 100 mg/kg i.v.; for Vd: read-out: Vss
Description: (§1) Twenty hours after RT, the rats were administered 100 mg/kg of 5-FU in 2 mL of normal saline by intravenous infusion into the femoral vein over a 2-min period. A 150-µL blood sample was withdrawn from the jugular vein with a fraction collector according to a programmed schedule at 5, 15, 30, 45, and 60 min, and 1.5, 2, 2.5, and 3 h following drug administration. The blood samples were immediately centrifuged at 3300×g for 10 min. The resulting plasma (50 µL) was added to 1 mL of ethyl acetate in a clean tube, vortexed for 5 min, and centrifuged at 5900×g for 10 min. After centrifugation, the upper organic layer containing the ethyl acetate was transferred to a new tube and evaporated to dryness under flowing nitrogen. The dried residue was reconstituted with 50 µL of Milli-Q water (Millipore). A 20-µL aliquot of the solution was injected to the high performance liquid chromatography-ultraviolet (HPLC-UV) detection system.
(§2) Chromatographic analysis was performed on a Model LC-20AT HPLC system (Shimadzu, Tokyo, Japan) equipped with a Model SPD-20A wavelength UV detector, SIL-20AC autosampler, and an LC Solution data processing system. A LiChroCART RP-18e column (Purospher, 250 mm, 5 µm, Merck, Darmstadt, Germany) with a LiChroCART 4-4 guard column was used for separation. The mobile phase comprised […] potassium phosphate-methanol (99∶1, v/v, pH 4.5 adjusted by 85% phosphoric acid), and the flow rate of the mobile phase was 1 ml/min. The detection wavelength was set at 266 nm. Under these conditions, the retention time of 5-FU was 5.4 min. […] Good linearity was achieved over the range of 0.01–5 µg/ml, with all coefficients of correlation greater than 0.998. All samples were freshly prepared, including the standard solutions, from the same stock solution (5 mg/mL). The 0.01-µg/mL limit of quantification was defined the lowest concentration on the calibration curve that could be measured routinely with acceptable bias and relative SD. The overall mean precision, defined by the relative SD, ranged from 0.2% to 11.0%. Analytical accuracy was expressed as the percentage difference of the mean observed values compared to known concentrations varying from −10.0% to 14.0%. The recovery results for concentrations of 0.1–10 µg/mL were 92.0%–94.0%
MMP-8 inhibitor I (Calbiochem, La Jolla, CA) was administered to the rats to examine whether or not RT modulation of 5-FU pharmacokinetic parameters could be blocked. Briefly, MMP-8 inhibitor I was dissolved in PEG400/ethanol [4∶1 (v/v)] solution, yielding a final concentrations of 5 mg/mL. Two hours before irradiation, 10 mg/kg of MMP-8 inhibitor I was infused into the rat's tail vein over a 2-min period. After that, the rats were anesthetized with urethane 1 g/ml and α-chloralose 0.1 g/ml (1 ml/ kg by intraperitoneal injection), and were immobilized on a board to undergo computed tomography for simulation of the whole pelvic field and received irradiation, as described previously. The experimental animals were randomized to control without PEG400/ethanol [4∶1 (v/v)] solution (0 Gy), control with solvent (0 Gy), whole pelvic irradiation (2 Gy) with solvent and whole pelvic irradiation (2 Gy) with MMP-8 inhibitor and solvent groups, respectively. After RT sham RT 20 hrs, all rats received 5-FU (100 mg/kg) injections and the pharmacokinetic parameters of 5-FU were analyzed. Each group's data was collected from four rats.
(§3) Pharmacokinetic parameters including the AUC for concentration versus time, terminal elimination phase t1/2, Cmax, MRT, total plasma clearance and Vss were calculated using the pharmacokinetics calculation software WinNonlin Standard Edition, Version 1.1 (Scientific Consulting, Apex, NC, USA) using a compartmental method.

[3] = cited from earlier work
[4] = tested on: alanine aminotransferase (ALT); experiment: Evaluation of hepatic function (plasma ALT); format: in vivo; settings: rats
Description: The plasma levels of alanine aminotransferase (ALT) were measured to check the influence of different modalities for hepatic function by a standard colorimetric method using a Synchron LX20 spectrophotometer (Beckman Coulter) and manufacturer-supplied reagents.

[5] = design: method as in PMID 9188061; settings: rats, mean ± SD, cited from earlier work
[6] = Plasma pharmacokinetics of 5-FU in rats after whole pelvic irradiation; format: in vivo, Sprague-Dawley rats; settings: for AUC / Cmax / MRT / clearance / half-life / Vd: Sprague-Dawley, rat, iv, 100 mg/kg, 5-FU 100 mg/kg i.v.; for Vd: read-out: Vss
Description: The rats were anesthetized with urethane 1 g/ml and α-chloralose 0.1 g/ml (1 ml/kg by intraperitoneal injection), and were immobilized on a board when undergoing computed tomography for simulation of the whole pelvic field. The cranial margin was set at the top of the bilateral iliac crests for the whole pelvic field (Fig. 7). Conventional radiotherapy was used to deliver the radiation dose via the anterior-posterior (AP) and PA portals. The experimental animals were randomized to the control, 2-Gy alone, 5-FU alone, 0.5-Gy followed by 5-FU, and 2-Gy followed by 5-FU groups. Each group's data was collected from six rats.
as §1, §2, §3

HepG2 [7] = experiment: Viability/toxicity of 5-FU-treated HepG2 with or without recombinant MMP-8; format: cell-based, Human; settings: 5-FU-treated with or without recombinant MMP-8, data not shown
HepG2 [8] = experiment: Intracellular 5-FU levels with or without recombinant MMP-8 by HPLC; format: cell-based, Human; settings: 10 µg/mL recombinant MMP-8 plus 50 µM 5-FU vs 50 µM 5-FU alone, up to 60 min
Description: as §2, with “92.0%–94.0% […]” for “92.0%–94.0%”

[9] = whole pelvic irradiation 0.5 Gy
[10] = plasma, controls without solvent
[11] = plasma, whole pelvic irradiation 2 Gy with solvent
[12] = plasma, plasma, whole pelvic irradiation 2 Gy with solvent and MMP-8 inhibitor (10 mg/kg, 2 h before irradiation)
[13] = MMP-8 inhibitor 10 mg/kg 2 h before 2 Gy

increase of the AUC of 5-FU in bile by pelvic irradiation ([1]; 0.5 Gy vs non-irradiated controls): 25.1%
increase of the AUC of 5-FU in bile by pelvic irradiation ([1]; 2 Gy vs non-irradiated controls): 30.6%
AUC ([1]; controls 0 Gy): 19700 ng·h/mL
Cmax ([1]; controls 0 Gy): 129 ± 22 µg/mL
MRT ([1]; controls 0 Gy): 8.9 min
clearance ([1]; controls 0 Gy): 84.8 ± 3.6 mL/min/kg
half-life ([1]; controls 0 Gy): 9.2 ± 0.4 min
Vd ([1]; controls 0 Gy): 0.754 ± 0.102 L/kg
AUC [1, 9]: 24600 ng·h/mL
Cmax [1, 9]: 120 ± 14 µg/mL
MRT [1, 9]: 11.1 min
clearance [1, 9]: 67.9 ± 3.6 mL/min/kg
half-life [1, 9]: 10.3 ± 0.5 min
Vd [1, 9]: 0.753 ± 0.025 L/kg
AUC ([1]; whole pelvic irradiation 2 Gy): 25700 ng·h/mL
Cmax ([1]; whole pelvic irradiation 2 Gy): 93 ± 6 µg/mL
MRT ([1]; whole pelvic irradiation 2 Gy): 13.9 min
clearance ([1]; whole pelvic irradiation 2 Gy): 65.1 ± 4.3 mL/min/kg
half-life ([1]; whole pelvic irradiation 2 Gy): 12.9 ± 2.8 min
Vd ([1]; whole pelvic irradiation 2 Gy): 0.903 ± 0.055 L/kg
AUC ([2]; plasma, controls with solvent): 71400 ng·h/mL
Cmax ([2]; plasma, controls with solvent): 146 ± 35 µg/mL
MRT ([2]; plasma, controls with solvent): 36 min
clearance ([2]; plasma, controls with solvent): 23.4 ± 0.8 mL/min/kg
half-life ([2]; plasma, controls with solvent): 27.8 ± 3 min
AUC [2, 10]: 71400 ng·h/mL
Cmax [2, 10]: 151 ± 17 µg/mL
MRT [2, 10]: 37 min
clearance [2, 10]: 23.4 ± 1.1 mL/min/kg
half-life [2, 10]: 33.3 ± 16.1 min
AUC [2, 11]: 55100 ng·h/mL
Cmax [2, 11]: 132 ± 51 µg/mL
MRT [2, 11]: 26 min
clearance [2, 11]: 30.3 ± 0.3 mL/min/kg
half-life [2, 11]: 31 ± 8.8 min
Vd ([2]; plasma, plasma, controls with solvent): 0.836 ± 0.097 L/kg
Vd ([2]; plasma, plasma, controls without solvent): 0.859 ± 0.022 L/kg
AUC [2, 12]: 66000 ng·h/mL
Cmax [2, 12]: 122 ± 29 µg/mL
MRT [2, 12]: 36 min
clearance [2, 12]: 25.4 ± 2.8 mL/min/kg
half-life [2, 12]: 32.3 ± 9.9 min
Vd [2, 12]: 0.911 ± 0.127 L/kg
Vd ([2]; plasma, plasma, whole pelvic irradiation 2 Gy with solvent): 0.784 ± 0.11 L/kg
reduction of the AUC of 5-FU by pelvic irradiation ([6]; 0.5 Gy vs non-irradiated controls, P = 0.019): 17.6%
reduction of the AUC of 5-FU by pelvic irradiation ([6]; 2 Gy vs non-irradiated controls, P = 0.008): 21.5%
AUC ([6]; controls 0 Gy): 78800 ng·h/mL
Cmax ([6]; controls 0 Gy): 164 ± 36 µg/mL
MRT ([6]; controls 0 Gy): 36.5 min
clearance ([6]; controls 0 Gy): 21.3 ± 1.9 mL/min/kg
half-life ([6]; controls 0 Gy): 34.7 ± 9.6 min
Vd ([6]; controls 0 Gy): 0.778 ± 0.088 L/kg
AUC [6, 9]: 64900 ng·h/mL
Cmax [6, 9]: 167 ± 23 µg/mL
MRT [6, 9]: 30.9 min
clearance [6, 9]: 25.8 ± 2 mL/min/kg
half-life [6, 9]: 24.7 ± 3.5 min
Vd [6, 9]: 0.775 ± 0.116 L/kg
AUC ([6]; whole pelvic irradiation 2 Gy): 61900 ng·h/mL
Cmax ([6]; whole pelvic irradiation 2 Gy): 179 ± 19 µg/mL
MRT ([6]; whole pelvic irradiation 2 Gy): 25 min
clearance ([6]; whole pelvic irradiation 2 Gy): 27.3 ± 3.6 mL/min/kg
half-life ([6]; whole pelvic irradiation 2 Gy): 29.9 ± 7.1 min
Vd ([6]; whole pelvic irradiation 2 Gy): 0.67 ± 0.06 L/kg
Molecule: O=c1[nH]cc(F)c(=O)[nH]1 [5-FU, 5-fluorouracil]
fraction catabolyzed by the liver via the dihydropyrimidine dehydrogenase (DPD) pathway [3]: About 80%
alanine aminotransferase (ALT) levels vs control group ([4]; 0.5 Gy followed by 5-FU): no significant difference
alanine aminotransferase (ALT) levels vs control group ([4]; 2 Gy followed by 5-FU): no significant difference
alanine aminotransferase (ALT) levels vs control group ([4]; 5-FU-treated only): no significant difference
dose-normalized area under the curve (AUC) ([5]; 10 mg/kg): 0.43 ± 0.11 mg·h/L/mg
dose-normalized area under the curve (AUC) ([5]; 50 mg/kg): 0.50 ± 0.16 mg·h/L/mg
dose-normalized area under the curve (AUC) ([5]; 100 mg/kg): 1.14 ± 0.55 mg·h/L/mg

Molecule: COc1ccc(S(=O)(=O)N2Cc3ccccc3C[C@@H]2C(=O)NO)cc1 [MMP-8 inhibitor]
effect on the decreased MRT of 5-FU caused by irradiation [2, 13]: completely reversed
effect on the increased clearance value of 5-FU caused by irradiation [2, 13]: completely reversed
effect of pretreatment on the decline in AUC of 5-FU caused by pelvic irradiation ([2]; MMP-8 inhibitor 10 mg/kg 2 h before 2 Gy, P<0.05): significantly attenuated
effect of MMP-8 inhibitor alone on the AUC of 5-FU ([2]; plasma, in comparison with the controls): Neither the MMP-8 inhibitor alone nor its vehicle had a significant effect

Molecule: recombinant MMP-8: recombinant matrix metalloproteinase-8, 10 µg/mL added to HepG2 cells
toxicity to HepG2 (HepG2 [7]): no significant toxicity
effect on the AUC of intracellular 5-FU (HepG2 [8]): no significant effect

From paper PMC3111455, “Matrix Metalloproteinase-8 Mediates the Unfavorable Systemic Impact of Local Irradiation on Pharmacokinetics of Anti-Cancer Drug 5-Fluorouracil” (PLoS ONE, 2011)
